Experimental data published in patent US10040783B2 (Emory University, priority 2011, dated 2018).
Like-named read-outs stand apart in the source and are kept apart here. One block for each molecule: values may come before it.

What was measured:
EP2 receptor = EP2 receptor (Homo sapiens, UniProt P43116); assay: Schild regression of PGE2-induced EP2 activation in C6G-EP2 cells; type: cell-based; design: expressed in transfected cells; host or cells: C6G-EP2 cells
Method: (§1) Information on the modality of antagonism can be obtained by performing Schild regression analysis characterized by: log (dr−1)=log XB−log KB. In the equation, dose ratio (dr)=fold shift in EC50, XB=[antagonist], KB=equilibrium dissociation constant for the antagonist-receptor complex. […] Thus, a lower KB value indicates a higher inhibitory potency.
To perform the Schild regression, C6G-EP2 cells were incubated first with vehicle, 0.01, 0.1 or 1 μM of test compound for 5 minutes, then with increasing concentrations of PGE2 to activate the EP2 receptor.

in vitro = details: rat
EP4 receptor = EP4 receptor (Homo sapiens, UniProt P35408); assay: Schild regression analysis for EP4 receptor; type: cell-based; details: for Kb: read-out: KB (μM) EP4, from Schild regression analysis
Chain of EP4 receptor (P35408 whole entry): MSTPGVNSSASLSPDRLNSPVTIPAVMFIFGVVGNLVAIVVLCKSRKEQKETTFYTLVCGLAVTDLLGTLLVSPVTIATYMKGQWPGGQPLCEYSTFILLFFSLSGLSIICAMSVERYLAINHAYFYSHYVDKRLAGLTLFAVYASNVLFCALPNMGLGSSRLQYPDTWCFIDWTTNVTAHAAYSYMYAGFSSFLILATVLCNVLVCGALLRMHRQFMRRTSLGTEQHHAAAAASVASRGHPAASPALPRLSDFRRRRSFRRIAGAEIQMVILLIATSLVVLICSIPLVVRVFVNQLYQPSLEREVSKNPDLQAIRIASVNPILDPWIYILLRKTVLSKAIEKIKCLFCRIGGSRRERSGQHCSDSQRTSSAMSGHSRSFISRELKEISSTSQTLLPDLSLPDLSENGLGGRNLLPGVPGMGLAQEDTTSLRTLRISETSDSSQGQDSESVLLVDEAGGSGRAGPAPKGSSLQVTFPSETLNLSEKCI
Excerpt: as §1

C6G cells = assay: CellTiter-Glo luminescent cell viability assay (cytotoxicity)
[1] = additional compounds tables, read-out: EP2 KB
[2] = C6G-EP2 cells, PGE2 as agonist, read-out: KB (nM) EP2, from Schild regression analysis

Chain of EP2 receptor (P43116 whole entry): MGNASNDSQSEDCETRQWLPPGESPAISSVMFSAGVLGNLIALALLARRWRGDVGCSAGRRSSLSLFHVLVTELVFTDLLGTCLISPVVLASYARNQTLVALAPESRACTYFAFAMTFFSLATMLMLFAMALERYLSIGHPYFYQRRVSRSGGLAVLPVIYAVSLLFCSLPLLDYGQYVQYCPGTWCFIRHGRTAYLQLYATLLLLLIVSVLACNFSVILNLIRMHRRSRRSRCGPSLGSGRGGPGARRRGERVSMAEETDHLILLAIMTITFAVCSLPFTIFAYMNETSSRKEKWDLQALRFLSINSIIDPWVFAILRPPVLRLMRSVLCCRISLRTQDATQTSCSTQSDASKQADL

Selective index, KB EP4/KB EP2 (EP4 receptor): 715
Kb (EP4 receptor): 19.9 µM
Kb (EP2 receptor; [2]): 27.8 nM
SMILES: Cc1cc2cc(F)ccc2n1CCNC(=O)C=Cc1cc(F)c(F)c(F)c1 [1u, N-(2-(5-fluoro-2-methyl-1H-indol-1-yl)ethyl)-3-(3,4,5-trifluorophenyl)acrylamide]
CC50 at 48 h (in vitro; C6G cells): 62000 nM
Therapeutic index (in vitro), CC50/KB for EP2 (C6G cells): 2,230

Selective index, KB EP4/KB EP2 (EP4 receptor): 277
Kb (EP4 receptor): 11.7 µM
Kb (EP2 receptor; [2]): 42.4 nM
SMILES: COc1ccc(C=CC(=O)NCCn2c(C)cc3cc(F)ccc32)cc1 [1n, N-(2-(5-fluoro-2-methyl-1H-indol-1-yl)ethyl)-3-(4-methoxyphenyl)acrylamide]
CC50 at 48 h (in vitro; C6G cells): 653000 nM
Therapeutic index (in vitro), CC50/KB for EP2 (C6G cells): 15,400

Selective index, KB EP4/KB EP2 (EP4 receptor): 629
Kb (EP4 receptor): 11.4 µM
Kb (EP2 receptor; [2]): 18.1 nM
SMILES: Cc1cc2ccccc2n1CCNC(=O)C=Cc1ccc2c(c1)OCO2 [1o, 3-(benzo[d][1,3]dioxol-5-yl)-N-(2-(2-methyl-1H-indol-1-yl)ethyl)acrylamide]
CC50 at 48 h (in vitro; C6G cells): 146000 nM
Therapeutic index (in vitro), CC50/KB for EP2 (C6G cells): 8,070

Selective index, KB EP4/KB EP2 (EP4 receptor): 2,800
Kb (EP4 receptor): 10.6 µM
Kb (EP2 receptor; [2]): 3.8 nM
SMILES: Cc1cc2ccccc2n1CCNC(=O)C=Cc1ccc(F)c(F)c1 [1r, 3-(3,4-difluorophenyl)-N-(2-(2-methyl-1H-indol-1-yl)ethyl)acrylamide]
CC50 at 48 h (in vitro; C6G cells): 89000 nM
Therapeutic index (in vitro), CC50/KB for EP2 (C6G cells): 23,400

Selective index, KB EP4/KB EP2 (EP4 receptor): 381
Kb (EP4 receptor): 22.4 µM
Kb (EP2 receptor; [2]): 58.8 nM
SMILES: COc1ccc(/C=C/C(=O)NCCn2c(C(F)(F)F)cc3ccccc32)cc1OC [1i]
Therapeutic index (in vitro), CC50/KB for EP2 (C6G cells): 3,550
CC50 (C6G cells; read-out: CC50, half maximal cytotoxic concentration, C6G cells after 48 h incubation): 209000 nM

Kb (EP4 receptor): 18.1 µM
SMILES: COc1cc(CCC(=O)NCCn2c(C)cc3ccccc32)cc(OC)c1OC [1l, N-(2-(2-methyl-1H-indol-1-yl)ethyl)-3-(3,4,5-trimethoxyphenyl)propanamide]
CC50 at 48 h (in vitro; C6G cells): 397000 nM

Schild plot slope (EP2 receptor; C6G-EP2 cells, PGE2): 1.2
Kb (EP2 receptor; [2]): 1.8 nM
Modality of antagonism on EP2 receptor (EP2 receptor; Schild plots): competitive antagonism
SMILES: CCOc1c(Br)cc(CCC(=O)NCCn2c(C)cc3ccccc32)cc1OC [1v]

The remaining lines, values behind:

SMILES: CC(=O)Nc1ccc(C(=O)NCCc2c(C)[nH]c3ccccc23)cc1 [TG7-146]
Kb (EP2 receptor; [1]): 138 nM

SMILES: COc1cccc2c1C(=O)c1c(O)c3c(c(O)c1C2=O)C[C@@](O)(C(=O)CO)C[C@@H]3O[C@H]1C[C@H](N)[C@H](O)[C@H](C)O1 [doxorubicin, reference compound]
CC50 at 48 h (in vitro): 200 nM

SMILES: Cc1cc2ccccc2n1CCNC(=O)c1ccc(N2CCN(C)CC2)c(F)c1 [TG7-141, 3-fluoro-N-(2-(2-methyl-1H-indol-1-yl)ethyl)-4-(4-methylpiperazin-1-yl)benzamide]
Kb (EP2 receptor; [1]): 51.1 nM

SMILES: Cc1cc2ccccc2n1CCNC(=O)C1CCC(=O)N1 (centres unmarked) [TG7-120]
Kb (EP2 receptor; [1]): > 1000 nM

SMILES: Cc1cc2ccccc2n1CCNC(=O)c1cnc2ccc(F)cc2c1O [TG7-148]
Kb (EP2 receptor; [1]): 174 nM

SMILES: COc1cc(C(=O)NCCn2c(C)cc3ccccc32)cc(OC)c1OC [TG7-112-1]
Kb (EP2 receptor; [1]): > 1000 nM

SMILES: Cc1cc(/C=C/C(=O)NCCn2c(C(F)(F)F)cc3ccccc32)cc(C)c1F [TG7-13]
Kb (EP2 receptor; [1]): 288 nM

SMILES: Cc1cc2ccccc2n1CCNC(=O)c1nc2cc(F)ccc2[nH]1 [TG7-118]
Kb (EP2 receptor; [1]): 128 nM

SMILES: Cc1cc2ccccc2n1CCNC(=O)c1c[nH]c2c(F)cccc2c1=O [TG7-131]
Kb (EP2 receptor; [1]): 630 nM

SMILES: Cc1cc2ccccc2n1CCNC(=O)c1ccc(N(C)C)cc1 [TG7-142, 4-(dimethylamino)-N-(2-(2-methyl-1H-indol-1-yl)ethyl)benzamide]
Kb (EP2 receptor; [1]): 10.4 nM

SMILES: Cc1cc2ccccc2n1CCNC(=O)c1ccc(C#N)cc1 [TG7-147]
Kb (EP2 receptor; [1]): 139 nM

SMILES: Cc1cc2ccccc2n1CCNC(=O)c1ccc(N)cc1 [TG7-143]
Kb (EP2 receptor; [1]): 207 nM

SMILES: COc1cc(/C=C/C(=O)NCCc2c(C)oc3ccccc23)cc(OC)c1OC [TG7-122]
Kb (EP2 receptor; [1]): 217 nM

SMILES: Cc1cc2ccccc2n1CCNC(=O)c1ccc(C(N)=O)cc1 [TG7-140]
Kb (EP2 receptor; [1]): 150 nM
